Experimental data as given in patent US9695155B2, “Herbicidal substituted pyrimidinyloxy benzene compounds” (E. I. DU PONT DE NEMOURS AND COMPANY, priority 2013, dated 2017).

Assays:
[1] = test system: johnsongrass; assay: Test C postemergence; assay type: in vivo, Sorghum halepense; settings: Sorghum halepense, post-emergence
Method in brief: (§1)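 Plants were kept under greenhouse conditions for 13–15 days following spray. Pre-emergent application went to soil (loam–sand), post-emergent to foliage at 1–4 leaves. Evaluation: visual, percent control against untreated checks.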

[2] = test system: morningglory; assay: Test A preemergence; assay type: in vivo, Ipomoea spp.; settings: Ipomoea, pre-emergence, 240 h, read-out: Morningglory plant response rating
Method in brief: (§2)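 Visual injury scored 0–100 (100 = complete control) against untreated controls about 10 days after treatment in a greenhouse. Test chemicals, formulated with surfactant in non-phytotoxic solvent, were sprayed on soil preemergence or on 2-10 cm, one- to two-leaf plants postemergence.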

[3] = test system: giant foxtail; assay: Test C postemergence; assay type: in vivo, Setaria faberii; settings: Setaria faberi, post-emergence
Method in brief: as §1

[4] = test system: giant foxtail; assay: Test A preemergence; assay type: in vivo, Setaria faberii; settings: Setaria faberi, pre-emergence, 240 h, read-out: Foxtail, Giant plant response rating
Method in brief: as §2

[5] = test system: blackgrass; assay: Test C postemergence; assay type: in vivo, Alopecurus myosuroides; settings: Alopecurus myosuroides, post-emergence
Method in brief: as §1

[6] = test system: morningglory; assay: Test A postemergence; assay type: in vivo, Ipomoea spp.; settings: Ipomoea, post-emergence, 240 h
Method in brief: as §2

[7] = test system: sedge, umbrella; assay: Test B flooded paddy test; assay type: in vivo, Cyperus difformis; settings: Cyperus difformis, Flood, 250 g ai/ha; 0 to 100 scale where 0 is no effect and 100 is complete control; read-out: Plant response rating, Sedge, Umbrella
Method in brief: (§3)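 Evaluation is visual, against untreated controls, 13 to 15 days after treatment. Before treatment, plants reached the 2-leaf stage; pots were then flooded 3 cm deep, compound was added to the water, and that level was maintained. Ratings run 0 to 100, with 100 meaning complete control.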

[8] = test system: barnyardgrass; assay: Test B flooded paddy test; assay type: in vivo, Echinochloa crus-galli; settings: Echinochloa crus-galli; Flood, 250 g ai/ha; 0 to 100 scale where 0 is no effect and 100 is complete control; read-out: Plant response rating, Barnyardgrass
Method in brief: as §3

[9] = test system: barnyardgrass; assay: Test A preemergence; assay type: in vivo, Echinochloa crus-galli; settings: Echinochloa crus-galli, pre-emergence, 240 h, read-out: Barnyardgrass plant response rating
Method in brief: as §2

[10] = test system: pigweed; assay: Test A postemergence; assay type: in vivo, Amaranthus retroflexus; settings: Amaranthus retroflexus, post-emergence
Method in brief: as §2

[11] = test system: chickweed; assay: Test C postemergence; assay type: in vivo, Stellaria media; settings: Stellaria media, post-emergence
Method in brief: as §1

[12] = test system: large (Lg) crabgrass; assay: Test C postemergence; assay type: in vivo, Digitaria sanguinalis; settings: Digitaria sanguinalis, post-emergence
Method in brief: as §1

[13] = test system: Italian ryegrass; assay: Test C postemergence; assay type: in vivo, Lolium multiflorum; settings: Lolium multiflorum, post-emergence
Method in brief: as §1

[14] = test system: pigweed; assay: Test A preemergence; assay type: in vivo, Amaranthus retroflexus; settings: Amaranthus retroflexus, pre-emergence, 240 h, read-out: Pigweed plant response rating
Method in brief: as §2

[15] = test system: corn; assay: Test C postemergence; assay type: in vivo, Zea mays; settings: Zea mays, post-emergence
Method in brief: as §1

[16] = 125 g ai/ha, 0 to 100 scale where 0 is no effect and 100 is complete control
[17] = 500 g ai/ha, 0 to 100 scale, 0 no effect, 100 complete control, approx. 10 days

Clc1cnn(-c2ccccc2Oc2ncc(Br)cn2)c1 [Compound 5, 5-bromo-2-[2-(4-chloro-1H-pyrazol-1-yl)phenoxy]pyrimidine]
pest or weed control at 125 g/ha ([1]; 125 g ai/ha, postemergence, read-out: Plant response rating (0 to 100), Johnsongrass): 5% | pest or weed control at 250 g/ha ([1]; 250 g ai/ha, postemergence, read-out: Plant response rating (0 to 100), Johnsongrass): 10% | pest or weed control at 31 g/ha ([1]; Postemergence, 31 g ai/ha, scale 0 to 100 (0 no effect, 100 complete control), 13 to 15 days, read-out: Plant response rating, Johnsongrass): 5% | pest or weed control at 62 g/ha ([1]; Postemergence, 62 g ai/ha, scale 0 to 100 (0 no effect, 100 complete control), read-out: Plant response rating, Johnsongrass): 5% | pest or weed control at 125 g/ha [2, 16]: 0% | pest or weed control at 500 g/ha [2, 17]: 20% | pest or weed control at 125 g/ha ([3]; 125 g ai/ha, postemergence, read-out: Plant response rating (0 to 100), Foxtail, Giant): 5% | pest or weed control at 250 g/ha ([3]; 250 g ai/ha, postemergence, read-out: Plant response rating (0 to 100), Foxtail, Giant): 10% | pest or weed control at 31 g/ha ([3]; Postemergence, 31 g ai/ha, scale 0 to 100 (0 no effect, 100 complete control), 13 to 15 days, read-out: Plant response rating, Foxtail, Giant): 5% | pest or weed control at 62 g/ha ([3]; Postemergence, 62 g ai/ha, scale 0 to 100 (0 no effect, 100 complete control), read-out: Plant response rating, Foxtail, Giant): 5% | pest or weed control at 125 g/ha [4, 16]: 90% | pest or weed control at 500 g/ha [4, 17]: 100% | pest or weed control at 125 g/ha ([5]; 125 g ai/ha, postemergence, read-out: Plant response rating (0 to 100), Blackgrass): 20% | pest or weed control at 250 g/ha ([5]; 250 g ai/ha, postemergence, read-out: Plant response rating (0 to 100), Blackgrass): 45% | pest or weed control at 31 g/ha ([5]; Postemergence, 31 g ai/ha, scale 0 to 100 (0 no effect, 100 complete control), 13 to 15 days, read-out: Plant response rating, Blackgrass): 0% | pest or weed control at 62 g/ha ([5]; Postemergence, 62 g ai/ha, scale 0 to 100 (0 no effect, 100 complete control), read-out: Plant response rating, Blackgrass): 5% | pest or weed control at 125 g/ha ([6]; 125 g ai/ha, 0 to 100 scale where 0 is no effect and 100 is complete control, read-out: Plant response rating, Morningglory): 80% | pest or weed control at 500 g/ha ([6]; 500 g ai/ha, 0 to 100 scale, 0 no effect, 100 complete control, read-out: Plant response rating Morningglory): 90% | pest or weed control at 250 g/ha [7]: 50% | pest or weed control at 250 g/ha [8]: 0% | pest or weed control at 125 g/ha [9, 16]: 10% | pest or weed control at 500 g/ha [9, 17]: 80% | pest or weed control at 125 g/ha ([10]; 125 g ai/ha, 0 to 100 scale where 0 is no effect and 100 is complete control, read-out: Plant response rating, Pigweed): 100% | pest or weed control at 500 g/ha ([10]; 240 h, 500 g ai/ha, 0 to 100 scale, 0 no effect, 100 complete control, read-out: Plant response rating Pigweed): 100% | pest or weed control at 250 g/ha ([11]; 250 g ai/ha, postemergence, read-out: Plant response rating (0 to 100), Chickweed): 45% | pest or weed control at 31 g/ha ([11]; Postemergence, 31 g ai/ha, scale 0 to 100 (0 no effect, 100 complete control), 13 to 15 days, read-out: Plant response rating, Chickweed): 5% | pest or weed control at 62 g/ha ([11]; Postemergence, 62 g ai/ha, scale 0 to 100 (0 no effect, 100 complete control), read-out: Plant response rating, Chickweed): 15% | pest or weed control at 125 g/ha ([12]; 125 g ai/ha, postemergence, read-out: Plant response rating (0 to 100), Crabgrass, Large): 20% | pest or weed control at 250 g/ha ([12]; 250 g ai/ha, postemergence, read-out: Plant response rating (0 to 100), Crabgrass, Large): 20% | pest or weed control at 31 g/ha ([12]; Postemergence, 31 g ai/ha, scale 0 to 100 (0 no effect, 100 complete control), 13 to 15 days, read-out: Plant response rating, Crabgrass, Large): 5% | pest or weed control at 62 g/ha ([12]; Postemergence, 62 g ai/ha, scale 0 to 100 (0 no effect, 100 complete control), read-out: Plant response rating, Crabgrass, Large): 15% | pest or weed control at 125 g/ha ([13]; 125 g ai/ha, postemergence, read-out: Plant response rating (0 to 100), Ryegrass, Italian): 10% | pest or weed control at 250 g/ha ([13]; 250 g ai/ha, postemergence, read-out: Plant response rating (0 to 100), Ryegrass, Italian): 25% | pest or weed control at 31 g/ha ([13]; Postemergence, 31 g ai/ha, scale 0 to 100 (0 no effect, 100 complete control), 13 to 15 days, read-out: Plant response rating, Ryegrass, Italian): 0% | pest or weed control at 62 g/ha ([13]; Postemergence, 62 g ai/ha, scale 0 to 100 (0 no effect, 100 complete control), read-out: Plant response rating, Ryegrass, Italian): 5% | pest or weed control at 125 g/ha [14, 16]: 100% | pest or weed control at 500 g/ha [14, 17]: 100% | plant injury at 125 g/ha ([15]; 125 g ai/ha, postemergence, read-out: Plant response rating (0 to 100), Corn): 60% | plant injury at 250 g/ha ([15]; 250 g ai/ha, postemergence, read-out: Plant response rating (0 to 100), Corn): 70% | Corn plant response rating (crop injury, 0 = no effect, 100 = complete kill) at 31 g/ha ([15]; Postemergence, 31 g ai/ha, scale 0 to 100 (0 no effect, 100 complete control), 13 to 15 days): 15% | Corn plant response rating (crop injury, 0 = no effect, 100 = complete kill) at 62 g/ha ([15]; Postemergence, 62 g ai/ha, scale 0 to 100 (0 no effect, 100 complete control)): 20%
